What was measured:
rat hepatocytes = conditions: lamivudine triphosphate used as a reference; cited from earlier work
[1] = tested on: human liver microsome (HLM); test: Human liver microsomal metabolism in vitro (release of 2FM-UMP); assay type: in vitro ADME; conditions: formation of 2FM-UMP, versus other candidate compounds of Table 3
Source text: The human liver microsome (HLM) used in this test was purchased from In Vitro Technologies (IVT) with a batch number of SSP X008070, which was a mixed liver microsome extracted from the liver tissues of 150 donors. The product description recorded that the metabolic activity of CYP3A4 in this batch of the human liver microsomes was 1.734 nmol/mg/min (the rate at which testosterone is metabolized to produce 6-β testosterone). The test compound was synthesized by Zhejiang Plato Pharmaceutical Technology Co., Ltd., and dissolved in methanol to prepare a storage solution having a concentration of 25 mM. The enzymatic reaction was carried out in a 100 mM KH2PO4 buffer solution (pH 7.4) at a test compound concentration of 25 μM and a human liver microsome concentration of 2 mg/ml. The reaction was initiated by the addition of NADPH (final concentration 2 mM). After reacting for 5 min in a constant temperature shaking water bath, the reaction was terminated by the rapid addition of methanol at a volume of 1.5 times that of the reaction mixture. The reaction solution was centrifuged at a maximum speed of 13,600 rpm using an Eppendorf bench top centrifuge for 20 min, and the supernatant was taken. And then the supernatant was dried by a nitrogen blower and redissolved in mobile phase A (aqueous solution containing 5 mM ammonium acetate and 0.05% formic acid v/v). The resulting sample was analyzed by LC-MS/MS (Waters, Acquity UPLC HSS T3 column).

[2] = Compound tissue distribution experiment in rats (metabolites 2FM-UR, 2FM-UMP, 2FM-UTP by LC-MS/MS); assay type: in vivo, Sprague Dawley rats; conditions: rat; for 2FM-UTP released in liver versus corresponding time points of sofosbuvir: 30 mg/Kg oral, p<0.01, FIG. 2; for 2FM-UMP released in the heart versus sofosbuvir: p<0.01, FIGS. 3A-3B; for Active molecule 2FM-UTP in the blood and heart: lower limit of quantitation 5 ng/mL or 5 ng/g
Description: Sprague Dawley rats, male, weighing 180-300 g, were provided by Shanghai Xipuer-Beikai Experimental Animal Co., Ltd. Male animals were allowed to adapt to the environment for more than 3 days, and fasted for 12 hours before the experiment, but were free to drink water. PA2020, PA2024, PA2029 and sofosbuvir were respectively dissolved in a mixed solvent of Cremophor EL, ethanol and normal saline at a volume ratio of 10:10:80 to prepare corresponding solutions. Before the administration, the animals' weight was checked to determine whether the rats met the experimental requirements. Twelve rats were selected for grouping, 2 rats in each group, and 30 mg/kg of a drug solution was administered intragastrically to the rats. Samples were respectively collected at 0.5 h, 1 h, 3 h, 6 h, 12 h and 24 h after the administration. After the rats were euthanized with carbon dioxide, the blood was collected from the heart and stored in heparin anticoagulation tubes. The blood was centrifuged at 6,000 rpm and 4° C. for 5 min, and the supernatant plasma was taken and stored in dry ice. The kidney, liver and heart of the rats were collected and rinsed with normal saline pre-cooled at 4° C. and stored in dry ice after the water was drained. After the experiment, the samples were stored in a −80° C. refrigerator.
Due to the difference in polarity, 2FM-UR, 2FM-UMP and 2FM-UTP were separated and detected using different methods, so that the used LC-triple quadrupole mass spectrometry detectors, the pretreatment conditions, chromatographic and mass spectrometric conditions varied among these compounds.
In the ice bath, 50 μL of plasma was first mixed with 50 μL of internal standard solution (10% trichloroacetic acid solution of tenofovir at 500 ng/mL). After centrifugation at 13,000 rpm and 4° C. for 10 min, 20 μL of the supernatant was mixed with 180 μL of water, and 5 μL of the resulting solution was injected and analyzed by LC-MS/MS.
The kidney, liver and heart tissue were mixed with a buffer in a volume ratio of 1:5 and fully disrupted in the ice bath. 20 μL of the tissue homogenate was mixed with 20 μL of the internal standard solution (500 ng/mL of tenofovir in 10% trichloroacetic acid solution). After centrifugation at 13,000 rpm for 10 min at 4° C., 20 μL of the supernatant was mixed with 180 μL of water, and 5 μL of the resulting solution was injected and analyzed by LC-MS/MS.
LC-MS/MS-AJ (Triple Quad 5500, AB SCIEX) was used for sample analysis. Column: Acquity UPLC HSS T3 (2.1×50 mm, […]); column temperature: 40° C.; flow rate: 0.5 mL/min. Mobile phase A: 0.1% aqueous formic acid, mobile phase B: acetonitrile solution. Mass spectrometry conditions corresponding to the internal standard: electrospray ionization (ESI) positive ion mode, multiple reaction monitoring (MRM) monitoring ion pair m/z: 288/176 (tenofovir), 261/113 (2FM-UR); the temperature was 500° C.; the scanning time was 0.03 s; the collision energy was 15V.
In the ice bath, 30 μL of plasma was first mixed with 30 μL of internal standard solution (5% trichloroacetic acid solution of 100 ng/mL tolbutamide). After centrifugation at 13,000 rpm for 10 min at 4° C., 40 μL of the supernatant was mixed with 80 μL of water, and 5 μL of the injection was analyzed.
Kidney, liver, heart tissue: in the ice bath, tissue and 5 volumes of homogenization buffer of organ tissues (1.75 mL of methanol, 5 μL of 50% KOH solution and 0.75 mL of 268 mM EDTA solution, pH=8) were fully disrupted and mixed. 60 μL of tissue homogenate was mixed with 60 μl of internal standard solution (5% trichloroacetic acid solution of 100 ng/mL tolbutamide). After centrifugation at 13,000 rpm for 10 minutes at 4° C., 40 μL of the supernatant was mixed with 80 μL of water, and 5 μL of the injection was analyzed.
LC-MS/MS-AJ (Triple Quad 5500, AB SCIEX) was used for sample analysis. Column: ACE 3 AQ (2.1×50 mm); column temperature: 55° C.; flow rate: 0.45 mL/min. […]

[3] = 30 mg/kg intragastric, within 24 h
[4] = 30 mg/kg intragastric, within 24 h, plasma
[5] = same dose (30 mg/kg), plasma, relative to sofosbuvir

SMILES	Corresponding active triphosphate compound produced in rat hepatocytes (rat hepatocytes)	Transformation rate relative to other candidate compounds [1]	2FM-UTP released in liver versus corresponding time points of sofosbuvir [2]	Exposure amount of 2FM-UMP in liver (AUC0-t) [2, 3]	Exposure amount of 2FM-UTP in liver (AUC0-t) [2, 3]	Exposure amount of 2FM-UMP in plasma (AUC0-t) [2, 4]	2FM-UMP released in the heart versus sofosbuvir ([2]; 30 mg/kg, heart)	Active molecule 2FM-UTP in the blood and heart ([2]; 30 mg/kg)	2FM-UR released in the heart versus equivalent dose of sofosbuvir ([2]; 30 mg/kg, heart, p<0.01, FIGS. 4A-4B)	2FM-UMP concentration in plasma as fraction of sofosbuvir [2, 5]	2FM-UR concentration in plasma relative to sofosbuvir [2, 5]	Exposure amount of 2FM-UMP in heart (AUC0-t) ([2]; 30 mg/kg intragastric, within 24 h, heart, N.D. = below 5 ng/g or 5 ng/mL)
CCC(=O)O[C@@H]1[C@@H](COP2(=O)OCC[C@H](c3cccc(Cl)c3)O2)O[C@@H](n2ccc(=O)[nH]c2=O)[C@]1(C)F (stereo partly drawn)	87.8 nmol/g	–	–	–	–	–	–	–	–	–	–	–
C[C@@]1(F)[C@H](O)[C@@H](COP2(=O)OCC[C@H](c3cc(F)cc(Cl)c3)O2)O[C@H]1n1ccc(=O)[nH]c1=O (stereo partly drawn) [PA2020]	–	almost more than twice	significantly higher	102822 ng·h/g	26682 ng·h/g	439 ng·h/g	less	could not be detected	–	–	–	–
C[C@@]1(F)[C@H](O)[C@@H](COP2(=O)OCC[C@H](c3cc(Cl)cc(Cl)c3)O2)O[C@H]1n1ccc(=O)[nH]c1=O (stereo partly drawn) [PA2024]	–	almost more than twice	significantly higher	65242 ng·h/g	9591 ng·h/g	105 ng·h/g	less	could not be detected	–	–	–	–
C[C@@]1(F)[C@H](O)[C@@H](COP2(=O)OCC[C@H](c3cc(Cl)ccc3F)O2)O[C@H]1n1ccc(=O)[nH]c1=O (stereo partly drawn) [PA2029]	–	almost more than twice	significantly higher	110339 ng·h/g	11820 ng·h/g	1451 ng·h/g	less	could not be detected	less	¼	approximately half	–
CC(C)OC(=O)[C@H](C)N[P@](=O)(OC[C@H]1O[C@@H](n2ccc(=O)[nH]c2=O)[C@](C)(F)[C@@H]1O)Oc1ccccc1 [SFB, sofosbuvir, reference compound]	–	–	–	27128 ng·h/g	2691 ng·h/g	5680 ng·h/g	–	could not be detected	–	–	–	417 ng·h/g
